According to patent US6737245B1, “Luciferase expression cassettes and methods of use” (priority 1999, dated 2004):

Assay type: in vivo
Details: four mice, IP at 0, 2, 4 and 6 hr, 500 μl of 0.1% and 0.01%, observed over 24 hours
Description: Four mice were injected IP at 0, 2, 4 and 6 hr with 500 μl volumes of n-decyl aldehyde at concentrations of 0.1% and 0.01%. Aldehyde solutions were prepared as follows: 100 μl of aldehyde was diluted in 900 μl of ethanol. 10 μl of this 10% solution was then diluted into 990 μl of sterile phosphate buffered saline (PBS) pH 7.4 to give a 0.1% final volume of aldehyde solution. The animals were observed over a 24-hour period.

In the case of `CCCCCCCCCC=O` [n-decyl aldehyde], the “symptoms of illness or abnormal behavior” value is reported as “None of the mice showed any apparent symptoms of illness or abnormal behavior”.
